In ChEMBL document CHEMBL1938324 (Bioorg Med Chem Lett, 2012):
Residue numbers refer to the chain shown, from its start. The source made the active and inactive calls. The calls are words filed in the database; no cut-off is given here.

What was measured:
[1] = target: T1, Muscarinic acetylcholine receptor M1 (Homo sapiens, UniProt P11229); experiment: Antagonist activity at human muscarinic M1 receptor expressed in CHO cells assessed as inhibition of acetylcholine-induced calcium mobilization by fluorescence assay; type: functional, cell-based
T1 sequence (P11229 whole entry): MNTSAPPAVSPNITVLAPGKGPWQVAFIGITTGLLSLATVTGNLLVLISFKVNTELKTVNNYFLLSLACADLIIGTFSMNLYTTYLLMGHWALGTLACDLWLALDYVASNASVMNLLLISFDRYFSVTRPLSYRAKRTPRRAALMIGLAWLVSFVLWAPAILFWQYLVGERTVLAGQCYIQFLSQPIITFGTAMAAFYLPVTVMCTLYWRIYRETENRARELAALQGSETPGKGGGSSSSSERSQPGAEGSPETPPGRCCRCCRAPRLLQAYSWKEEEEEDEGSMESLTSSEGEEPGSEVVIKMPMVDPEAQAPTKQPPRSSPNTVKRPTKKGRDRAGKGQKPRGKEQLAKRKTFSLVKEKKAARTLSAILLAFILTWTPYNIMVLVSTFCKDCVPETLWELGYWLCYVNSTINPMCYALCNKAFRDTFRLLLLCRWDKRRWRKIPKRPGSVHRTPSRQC

[2] = target: T2, Muscarinic acetylcholine receptor M1 (Homo sapiens) (UniProt P11229); experiment: Inhibition of human muscarinic M1 receptor expressed in CHO cells assessed as inhibition of acetylcholine-induced calcium mobilization at 30 uM by fluorescence assay; type: functional, cell-based
T2 sequence (whole entry): T1 sequence (P11229 whole entry)

[3] = target: T2, Muscarinic acetylcholine receptor M1 (Homo sapiens); experiment: Antagonist activity at human muscarinic M1 receptor expressed in CHO cells assessed as residual activity at 30 uM by fluorescence assay; type: functional, cell-based
[4] = target: T3, Muscarinic acetylcholine receptor M1 (Rattus norvegicus, UniProt P08482); experiment: Antagonist activity at rat muscarinic M1 receptor expressed in CHO cells assessed as inhibition of acetylcholine-induced calcium mobilization by fluorescence assay; type: functional, cell-based
T3 sequence (P08482 whole entry): T1 sequence (P11229 whole entry) with A5V, T254S, P309S, R320K, A337G, I413V

[5] = target: T2, Muscarinic acetylcholine receptor M1 (Homo sapiens); experiment: Ratio of ML012 IC50 to compound IC50 for human muscarinic M1 receptor
[6] = target: T4, Muscarinic acetylcholine receptor M2 (Homo sapiens, UniProt P08172); experiment: Antagonist activity at human muscarinic M2 receptor expressed in CHO cells assessed as inhibition of acetylcholine-induced calcium mobilization by fluorescence assay; type: functional, cell-based
T4 sequence (P08172 whole entry): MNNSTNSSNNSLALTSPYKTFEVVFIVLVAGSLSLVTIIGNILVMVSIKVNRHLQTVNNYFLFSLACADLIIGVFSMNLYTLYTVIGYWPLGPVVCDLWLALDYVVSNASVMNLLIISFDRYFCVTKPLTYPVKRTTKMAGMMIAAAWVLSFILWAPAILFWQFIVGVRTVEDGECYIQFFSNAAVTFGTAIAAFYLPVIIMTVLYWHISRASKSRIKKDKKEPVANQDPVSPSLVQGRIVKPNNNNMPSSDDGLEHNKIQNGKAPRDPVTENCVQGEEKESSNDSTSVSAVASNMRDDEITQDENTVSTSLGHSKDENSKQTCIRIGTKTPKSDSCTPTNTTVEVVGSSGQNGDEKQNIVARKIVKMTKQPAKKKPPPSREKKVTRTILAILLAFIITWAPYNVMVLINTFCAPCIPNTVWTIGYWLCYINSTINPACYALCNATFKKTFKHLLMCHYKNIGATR

[7] = target: Muscarinic acetylcholine receptor M3 (Homo sapiens, UniProt P20309); experiment: Antagonist activity at human muscarinic M3 receptor expressed in CHO cells assessed as inhibition of acetylcholine-induced calcium mobilization by fluorescence assay; type: functional, cell-based
[8] = target: T5, Muscarinic acetylcholine receptor M4 (Homo sapiens, UniProt P08173); experiment: Antagonist activity at human muscarinic M4 receptor expressed in CHO cells assessed as inhibition of acetylcholine-induced calcium mobilization by fluorescence assay; type: functional, cell-based
T5 sequence (P08173 whole entry): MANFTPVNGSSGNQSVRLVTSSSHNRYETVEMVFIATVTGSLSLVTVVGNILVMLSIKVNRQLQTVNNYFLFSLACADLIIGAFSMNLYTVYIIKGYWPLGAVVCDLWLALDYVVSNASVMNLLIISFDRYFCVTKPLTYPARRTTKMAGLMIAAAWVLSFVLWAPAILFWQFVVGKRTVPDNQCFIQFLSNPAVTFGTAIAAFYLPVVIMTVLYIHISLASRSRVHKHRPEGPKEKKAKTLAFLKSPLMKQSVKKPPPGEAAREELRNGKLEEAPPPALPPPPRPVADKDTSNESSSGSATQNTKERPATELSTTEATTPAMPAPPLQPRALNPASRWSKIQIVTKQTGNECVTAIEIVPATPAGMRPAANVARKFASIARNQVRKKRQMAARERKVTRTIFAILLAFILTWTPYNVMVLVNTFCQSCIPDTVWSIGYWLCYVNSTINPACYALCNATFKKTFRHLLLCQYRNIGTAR

[9] = target: T6, Muscarinic acetylcholine receptor M5 (Homo sapiens, UniProt P08912); experiment: Antagonist activity at human muscarinic M5 receptor expressed in CHO cells assessed as inhibition of acetylcholine-induced calcium mobilization by fluorescence assay; type: functional, cell-based
T6 sequence (P08912 whole entry): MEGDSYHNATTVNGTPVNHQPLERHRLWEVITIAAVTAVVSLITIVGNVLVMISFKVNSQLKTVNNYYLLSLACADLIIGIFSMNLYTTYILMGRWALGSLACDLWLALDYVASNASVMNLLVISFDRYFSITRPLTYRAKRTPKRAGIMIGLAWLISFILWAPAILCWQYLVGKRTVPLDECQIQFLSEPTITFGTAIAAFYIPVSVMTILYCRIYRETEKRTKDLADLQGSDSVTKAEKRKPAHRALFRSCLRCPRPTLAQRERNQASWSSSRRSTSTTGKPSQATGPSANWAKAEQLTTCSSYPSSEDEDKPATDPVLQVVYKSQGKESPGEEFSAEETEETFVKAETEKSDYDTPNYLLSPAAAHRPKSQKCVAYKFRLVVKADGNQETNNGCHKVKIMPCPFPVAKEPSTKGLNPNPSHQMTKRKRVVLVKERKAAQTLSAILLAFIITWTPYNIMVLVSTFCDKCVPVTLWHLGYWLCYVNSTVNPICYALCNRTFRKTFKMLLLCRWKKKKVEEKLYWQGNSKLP

[10] = Clearance in iv dosed Sprague-Dawley rat; type: ADME, organism-based; details: in vivo
Rattus norvegicus = experiment: Half life in iv dosed Sprague-Dawley rat; type: ADME, organism-based; details: in vivo
[11] = Oral bioavailability in Sprague-Dawley rat at 10 mg/kg; type: ADME, organism-based; details: in vivo

Chain of Muscarinic acetylcholine receptor M3 (P20309 whole entry): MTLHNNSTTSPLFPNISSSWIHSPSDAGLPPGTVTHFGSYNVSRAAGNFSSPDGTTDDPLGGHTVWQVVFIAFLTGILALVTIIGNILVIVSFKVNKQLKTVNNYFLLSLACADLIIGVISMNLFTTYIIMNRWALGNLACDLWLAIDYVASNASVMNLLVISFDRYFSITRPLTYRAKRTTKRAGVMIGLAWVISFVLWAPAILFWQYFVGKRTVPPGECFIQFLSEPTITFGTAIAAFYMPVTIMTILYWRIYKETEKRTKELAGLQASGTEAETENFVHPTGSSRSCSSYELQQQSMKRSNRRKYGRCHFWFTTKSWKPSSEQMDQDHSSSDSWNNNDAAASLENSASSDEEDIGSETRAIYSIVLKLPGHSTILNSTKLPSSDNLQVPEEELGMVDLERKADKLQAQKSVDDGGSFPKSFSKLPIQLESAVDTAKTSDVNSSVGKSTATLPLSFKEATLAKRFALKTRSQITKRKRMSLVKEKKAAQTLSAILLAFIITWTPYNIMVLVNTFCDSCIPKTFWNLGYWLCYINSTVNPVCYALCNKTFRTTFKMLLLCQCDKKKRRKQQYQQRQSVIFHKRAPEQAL

IC50 [1] [µM]	Structure (SMILES)	further results
> 10	O=C(CCNS(=O)(=O)c1cccc2scnc12)N1CCN(c2ccncc2)CC1	
> 10	O=C(CCNS(=O)(=O)c1cccc2nsnc12)N1CCN(c2ccnc(Cl)c2)CC1	
> 10	O=C(CCNS(=O)(=O)c1cccc2nsnc12)N1CCN(c2cccc(F)n2)CC1	
1.1	O=C(CCNS(=O)(=O)c1cccc2nonc12)N1CCN(c2ccc(Br)cn2)CC1	
> 10	Cc1ccc2nonc2c1S(=O)(=O)NCCC(=O)N1CCN(c2ccncc2)CC1	
> 10	CN(CCC(=O)N1CCN(c2ccncc2)CC1)S(=O)(=O)c1cccc2nsnc12	
> 10	O=S(=O)(NCCCN1CCN(c2ccncc2)CC1)c1cccc2nsnc12	Activity [3]: 17%
0.69	O=C(CCNS(=O)(=O)c1cccc2nsnc12)N1CCN(c2ccncc2)CC1	IC50 [4]: 0.24 µM
2	Cc1cnccc1N1CCN(C(=O)CCNS(=O)(=O)c2cccc3nsnc23)CC1	
> 10	CN(C)c1cccc2c(S(=O)(=O)NCCC(=O)N3CCN(c4ccncc4)CC3)cccc12	
> 10	O=C(CCNS(=O)(=O)c1cccc2nsnc12)N1CCN(c2ccccn2)CC1	
2.6	O=C(CCNS(=O)(=O)c1cccc2nonc12)N1CCN(c2ccncc2)CC1	
> 10	Cc1ccc2nsnc2c1S(=O)(=O)NCCC(=O)N1CCN(c2ccncc2)CC1	
0.4	O=C(CCNS(=O)(=O)c1cccc2ncccc12)N1CCN(c2ccncc2)CC1	IC50 [6]: > 30 µM; IC50 [7]: > 30 µM; IC50 [8]: > 30 µM; IC50 [9]: > 30 µM; IC50 [4]: 0.18 µM; clearance [10]: 77 mL/min/kg; t1/2 (Rattus norvegicus): 40 min; bioavailability [11]: < 10%
> 10	O=C(CCNS(=O)(=O)c1ccc2nsnc2c1)N1CCN(c2ccncc2)CC1	
> 10	O=C(CCNS(=O)(=O)c1cccc(-n2cnnn2)c1)N1CCN(c2ccncc2)CC1	
> 10	O=C(CCNS(=O)(=O)c1cccc2nsnc12)N1CCN(c2ccnc(F)c2)CC1	
> 10	O=C(CCNS(=O)(=O)c1cccnc1)N1CCN(c2ccncc2)CC1	
> 10	O=C(CCNS(=O)(=O)c1cccc2nsnc12)N1CCN(c2ncccn2)CC1	

The next lines start with the compound.

Structure (SMILES)	IC50 [1] [µM]	further results
O=C(CCNS(=O)(=O)c1cccc2nsnc12)N1CCN(c2cccc(Cl)n2)CC1	> 10	
C[C@H](CC(=O)N1CCN(c2ccncc2)CC1)NS(=O)(=O)c1cccc2nonc12		inhibition [2]: inactive
Cc1cccc(N2CCN(C(=O)CCNS(=O)(=O)c3cccc4nsnc34)CC2)n1	> 10	
O=C(CCNS(=O)(=O)c1cccc2nsnc12)N1CCN(c2cc(Cl)ccn2)CC1	4.5	
Cc1ccnc(N2CCN(C(=O)CCNS(=O)(=O)c3cccc4nsnc34)CC2)c1	> 10	
O=C(CCNS(=O)(=O)c1cccc2ccccc12)N1CCN(c2ccc(Br)cn2)CC1	> 10	
O=C(CCNS(=O)(=O)c1cccc2cccnc12)N1CCN(c2ccc(Br)cn2)CC1	> 10	
O=C(CCNS(=O)(=O)c1cccc2ncccc12)N1CCN(c2ccc(Br)cn2)CC1	2.1	
O=C(CCNS(=O)(=O)c1cccc2nsnc12)N1CCN(c2nccs2)CC1	> 10	
O=C(CCNS(=O)(=O)c1ccc(F)c2nonc12)N1CCN(c2ccc(Br)cn2)CC1	4.8	
C[C@@H](CC(=O)N1CCN(c2ccncc2)CC1)NS(=O)(=O)c1cccc2nonc12		inhibition [2]: 30%
O=C(CCNS(=O)(=O)c1cccc2nsnc12)N1CCN(c2ncc(Cl)cn2)CC1	> 10	
O=C(CCNS(=O)(=O)c1c(Cl)ccc2nonc12)N1CCN(c2ccc(Br)cn2)CC1	> 10	
CC(=O)Nc1nc(C)c(S(=O)(=O)NCCC(=O)N2CCN(c3ccc(Br)cn3)CC2)s1	> 10	
O=C(CCNS(=O)(=O)c1cccc2nsnc12)N1CCN(c2ccc(Br)cn2)CC1	0.32	Ratio IC50 [5]: 2
Cc1ccc2nonc2c1S(=O)(=O)NCCC(=O)N1CCN(c2ccc(Br)cn2)CC1	> 10	
COc1cccc(S(=O)(=O)NCCC(=O)N2CCN(c3ccc(Br)cn3)CC2)c1	> 10	
O=C(CCNS(=O)(=O)c1cccc2nsnc12)N1CCN(c2nc3ccccc3o2)CC1	> 10	
O=C(C(F)CNS(=O)(=O)c1cccc2nonc12)N1CCN(c2ccncc2)CC1 (racemic)		Activity [3]: 25%
O=C(CCNS(=O)(=O)c1cccc2nsnc12)N1CCN(c2nc3ccccc3s2)CC1	> 10	
